Assay results from US8183263B2 (priority 2007, dated 2012).

Test system: HCV replicon
Assay: HCV replicon replication assay (NPT level by captured ELISA)
Assay type: cell-based
Conditions: Hepatitis C virus, 72 h; Huh-7 HCV replicon-containing cells, three days incubation; read-out: Activity (inhibition of HCV replicon replication)
Method: Compounds claimed herein are tested for the ability to inhibit viral replication of the Hepatitis C replicon in cultured cells in which the HCV replicon construct has been incorporated. The HCV replicon system was described by Bartenschlager, et. al (Science, 285, pp. 110-113 (1999)). The replicon system is predictive of in vivo anti-HCV activity; compounds that are active in humans uniformly evidence activity in the replicon assay.
In this assay HCV replicon containing cells are treated with different concentrations of the test compound to ascertain the ability of the test compound to suppress replication of the HCV replicon. As a positive control, HCV replicon-containing cells are treated with different concentrations of interferon alpha, a known inhibitor of HCV replication. The replicon assay system includes Neomycin Phosphotransferase (NPT) as a component of the replicon itself in order to detect the transcription of replicon gene products in the host cell. Cells in which the HCV replicon is actively replicating have high levels of NPT; the level of NPT is proportional to HCV replication. […] The NPT level of each sample is measured using a captured ELISA.
A protocol for testing compounds for the ability to inhibit viral replication of the Hepatitis C replicon cultured cells in which the replicon construct has been incorporated, follows.
The HCV replicon contains, 5′-3′, the HCV-IRES, the neomycin phosphotransferase (neo) gene, the IRES of encephalomyocarditis virus, which directs translation of HCV sequences NS3 to NS5B, and the 3′-NTR. The sequence of the HCV replicon has been deposited in GenBank (Accession no. AJ242652).
The replicon is transfected into Huh-7 cells using standard methods such as electroporation.
The equipment and materials include, but are not limited to, Huh-7 HCV replicon-containing cells, maintenance media (DMEM (Dulbecco's modified Eagle media) supplemented with 10% FBS, L-glutamine, non-essential amino acids, penicillin (100 units/ml), streptomycin (100 micrograms/ml), and 500 micrograms/ml of Geneticin (G418), screening media (DMEM supplemented with 10% FBS, L-glutamine, non-essential amino acids, penicillin (100 units/ml) and streptomycin (100 micrograms/ml)), 96 well tissue culture plates (flat bottom), 96 well plates (U bottom for drug dilution), Interferon alpha for positive control, fixation reagent (such as methanol: acetone), primary antibody (rabbit anti-NPTII), secondary antibody: Eu—N1 1, and enhancement solution.
HCV replicon-containing cells are rinsed with once PBS once; 2 mls of trypsin are then added. Cells are incubated at 37° C. in a 5% CO2 incubator for 3-5 minutes. 10 mls of complete medium is added to stop the reaction. Cells are blown gently, put into a 15 ml tube, and spun at 1200 rpm for four minutes. The trypsin/medium solution is removed and 5 mls of medium (500 ml DMEM (high glucose)) from BRL catalog #12430-054; 50 mls 10% FBS, 5% Geneticin G418 (50 mg/ml, BRL catalog #10131-035), 5 ml MEM non-essential amino acids (100×BRL #11140-050) and 5 ml pen-strep (BRL #15140-148) is added. The cells and media are mixed carefully
Cells are plated with screening medium (500 ml DMEM (BRL #21063-029), 50 ml FBS (BRL #10082-147) and 5 ml MEM non-essential amino acid (BRL #11140-050) at 6000-7500 cells/100 μl/well of 96 well plate (6-7.5×10^5 cells/10 ml/plate). Plates are placed into 37° C. 5% CO2 incubator overnight.
The following morning, drugs (test compounds or interferon alpha) are diluted in 96 well U bottom plates with media or DMSO/media, depending on the final concentration chosen for screening. Generally for 6 concentrations of each test compounds ranging from 10 micromolar to 0.03 micromolar are applied. 100 μl of the test compound dilution is placed in wells of the 96 well plate containing the HCV replicon cells. Media without drug is added to some wells as a negative controls. DMSO is known to affect cell growth. […]

Compared with CCCCCOc1cc(Nc2nc(-c3cnc(OC)nc3)c(F)s2)ccc1C(F)(F)F [Cmp 77, 5-fluoro-4-(2-methoxypyrimidin-5-yl)-N-(3-(pentyloxy)-4-(trifluoromethyl)phenyl)thiazol-2-amine], CCCCCOc1cc(Nc2nc(-c3cccnc3)c(F)s2)ccc1C(F)(F)F [Cmp 79, 5-fluoro-N-(3-(pentyloxy)-4-(trifluoromethyl)phenyl)-4-(pyridin-3-yl)thiazol-2-amine] is higher in EC50: under 1 µM for the first, 1 to 10 µM for the second. The first is the more potent here.

CCCCCCCCOc1ccc(N(N)c2nc(-c3cccnc3)c(F)s2)cc1C(F)(F)F [Cmp 120, 5-fluoro-2-(1-(4-(octyloxy)-3-(trifluoromethyl)phenyl)hydrazinyl)-4-(pyridin-3-yl)thiazole] and CCCCCCCCOc1ccc(N(C)c2nc(-c3cccnc3)c(F)s2)cc1C(F)(F)F [Cmp 159, 5-fluoro-N-methyl-N-(4-(octyloxy)-3-(trifluoromethyl)phenyl)-4-(pyridin-3-yl)thiazol-2-amine] cannot be ordered by EC50: under 1 µM for the first, under 1 µM for the second.

Cc1ccc(OCCCCc2ccc(Nc3nc(-c4cccnc4)cs3)cc2C(F)(F)F)cc1 [Cmp 117, 4-(pyridin-3-yl)-N-(4-(4-(p-tolyloxy)butyl)-3-(trifluoromethyl)phenyl)thiazol-2-amine] and CN(C)c1ccc(CCCCOc2ccc(Nc3nc(-c4cccnc4)cs3)cc2C(F)(F)F)cc1 [Cmp 89, N-(4-(4-(4-(dimethylamino)phenyl)butoxy)-3-(trifluoromethyl)phenyl)-4-(pyridin-3-yl)thiazol-2-amine] cannot be ordered by EC50: under 1 µM for the first, under 1 µM for the second.

CCCOCCCCCc1ccc(Nc2nc(-c3cccnc3)c(F)s2)cc1C(F)(F)F [Cmp 192, 5-fluoro-N-(4-(5-propoxypentyl)-3-(trifluoromethyl)phenyl)-4-(pyridin-3-yl)thiazol-2-amine] and CCCCCCc1ccc(Nc2nc(-c3cccnc3)c(F)s2)cc1C(F)(F)F [Cmp 112] cannot be ordered by EC50: under 1 µM for the first, under 1 µM for the second.

CCCCCCCCc1cc(Nc2nc(-c3cccnc3)cs2)cc(C(F)(F)F)c1 [Cmp 80, N-(3-octyl-5-(trifluoromethyl)phenyl)-4-(pyridin-3-yl)thiazol-2-amine] and CCCCCCCCc1ccc(Nc2nc(-c3ccc(O)nc3)cs2)cc1C(F)(F)F [Cmp 100, 5-(2-(4-octyl-3-(trifluoromethyl)phenylamino)thiazol-4-yl)pyridin-2-ol] cannot be ordered by EC50: under 1 µM for the first, under 1 µM for the second.

Fc1sc(Nc2ccc(OCCOc3ccccc3)c(C(F)(F)F)c2)nc1-c1cccnc1 [Cmp 139, 5-fluoro-N-(4-(2-phenoxyethoxy)-3-(trifluoromethyl)phenyl)-4-(pyridin-3-yl)thiazol-2-amine] and Fc1sc(Nc2ccc(C(F)(F)F)c(Oc3ccccc3)c2)nc1-c1cccnc1 [Cmp 108, 5-fluoro-N-(3-phenoxy-4-(trifluoromethyl)phenyl)-4-(pyridin-3-yl)thiazol-2-amine] cannot be ordered by EC50: under 1 µM for the first, under 1 µM for the second.

CCCCCCCCOc1cc(Nc2nc(-c3ccc(F)cc3)c(F)s2)ccc1C [Cmp 62, 5-fluoro-4-(4-fluorophenyl)-N-(4-methyl-3-(octyloxy)phenyl)thiazol-2-amine] and CCCCCCCCOc1ccc(Nc2nc(-c3cccnc3)c(F)s2)cc1 [Cmp 141, 5-fluoro-N-(4-(octyloxy)phenyl)-4-(pyridin-3-yl)thiazol-2-amine] cannot be ordered by EC50: under 1 µM for the first, under 1 µM for the second.

CCCCCCCCc1cc2ccc(Nc3nc(-c4cccnc4)c(F)s3)cc2o1 [Cmp 133, 5-fluoro-N-(2-octylbenzofuran-6-yl)-4-(pyridin-3-yl)thiazol-2-amine] and CCCCCCCCc1cc2cc(Nc3nc(-c4cccnc4)c(F)s3)ccc2o1 [Cmp 128, 5-fluoro-N-(2-octylbenzofuran-5-yl)-4-(pyridin-3-yl)thiazol-2-amine] cannot be ordered by EC50: under 1 µM for the first, under 1 µM for the second.

CCCCCOc1cc(Nc2nc(-c3cccnc3)cs2)ccc1C#N [Cmp 27, 2-(pentyloxy)-4-(4-(pyridin-3-yl)thiazol-2-ylamino)benzonitrile] and CCCCCCCC(=O)c1ccc(Nc2nc(-c3cccnc3)cs2)cc1 [Cmp 111, 1-(4-(4-(pyridin-3-yl)thiazol-2-ylamino)phenyl)octan-1-one] cannot be ordered by EC50: under 1 µM for the first, under 1 µM for the second.

Compared with CCCCCCCCOc1ccc(Nc2ncc(Sc3ccncc3)s2)cc1C(F)(F)F [Cmp 146, N-(4-(octyloxy)-3-(trifluoromethyl)phenyl)-5-(pyridin-4-ylthio)thiazol-2-amine], CCCCCCCCOc1ccc(N(N)c2nc(-c3cccnc3)cs2)cc1C(F)(F)F [Cmp 44, 2-(1-(4-(octyloxy)-3-(trifluoromethyl)phenyl)hydrazinyl)-4-(pyridin-3-yl)thiazolo] is lower in EC50: 1 to 10 µM for the first, under 1 µM for the second. The second is the more potent here.

Cc1ccc(Nc2nc(-c3cccnc3)cs2)cc1OCCOc1ccccc1 [Cmp 37, N-(4-methyl-3-(2-phenoxyethoxy)phenyl)-4-(pyridin-3-yl)thiazol-2-amine] and CC(=O)c1cc(Nc2nc(-c3cccnc3)c(F)s2)ccc1Oc1ccccc1 [Cmp 81, 1-(5-(5-fluoro-4-(pyridin-3-yl)thiazol-2-ylamino)-2-phenoxyphenyl)ethanone] cannot be ordered by EC50: under 1 µM for the first, under 1 µM for the second.

CCCCCCCCc1c(F)cc(Nc2nc(-c3cccnc3)c(F)s2)cc1F [Cmp 138, N-(3,5-difluoro-4-octylphenyl)-5-fluoro-4-(pyridin-3-yl)thiazol-2-amine] and CCCCCCCCc1ccc(Nc2nc(-c3cccnc3)c(F)s2)cc1 [Cmp 31, 5-fluoro-N-(4-octylphenyl)-4-(pyridin-3-yl)thiazol-2-amine] cannot be ordered by EC50: under 1 µM for the first, under 1 µM for the second.

CCCCCCCCc1ccc(Nc2nc(-c3cnccn3)c(Cl)s2)cc1C(F)(F)F [Cmp 170, 5-chloro-N-(4-octyl-3-(trifluoromethyl)phenyl)-4-(pyrazin-2-yl)thiazol-2-amine] and CCCCCCCCc1ccc(Nc2nc(-c3ccc(O)nc3)c(F)s2)cc1C(F)(F)F [Cmp 101, 5-(5-fluoro-2-(4-octyl-3-(trifluoromethyl)phenylamino)thiazol-4-yl)pyridin-2-ol] cannot be ordered by EC50: under 1 µM for the first, under 1 µM for the second.

FC(F)(F)c1cc(Nc2nc(-c3cccnc3)cs2)ccc1OC1Cc2ccccc2C1 [Cmp 171, N-(4-(2,3-dihydro-1H-inden-2-yloxy)-3-(trifluoromethyl)phenyl)-4-(pyridin-3-yl)thiazol-2-amine] and FC(F)(F)c1cc(Nc2nc(-c3cccnc3)cs2)ccc1OCCCCc1ccncc1 [Cmp 137, 4-(pyridin-3-yl)-N-(4-(4-(pyridin-4-yl)butoxy)-3-(trifluoromethyl)phenyl)thiazol-2-amine] cannot be ordered by EC50: under 1 µM for the first, under 1 µM for the second.

First: CCCCCCCS(=O)(=O)CCc1ccc(Nc2nc(-c3cccnc3)cs2)cc1 [Cmp 20, N-(4-(2-(heptylsulfonyl)ethyl)phenyl)-4-(pyridin-3-yl)thiazol-2-amine]
Second: CCCCCCCCc1cc2cc(Nc3nc(-c4ccc5nncn5c4)cs3)ccc2o1 [Cmp 179, 4-([1,2,4]triazolo[4,3-a]pyridin-6-yl)-N-(2-octylbenzofuran-5-yl)thiazol-2-amine]
The EC50 of the first is higher: 1 to 10 µM for the first, under 1 µM for the second.

Fc1sc(Nc2ccc(CCCCCCCCCl)c(C(F)(F)F)c2)nc1-c1cccnc1 [Cmp 231, N-(4-(8-chlorooctyl)-3-(trifluoromethyl)phenyl)-5-fluoro-4-(pyridin-3-yl)thiazol-2-amine] and CCCCCCCCc1ccc(Nc2nc(-c3ccc4nncn4c3)cs2)cc1C(F)(F)F [Cmp 178, 4-([1,2,4]triazolo[4,3-a]pyridin-6-yl)-N-(4-octyl-3-(trifluoromethyl)phenyl)thiazol-2-amine] cannot be ordered by EC50: under 1 µM for the first, under 1 µM for the second.

Work on CCCCCCCCOc1ccc(Nc2nc(-c3cc(F)sc3C(N)=O)cs2)cc1C(F)(F)F [Cmp 184, 5-fluoro-3-(2-(4-(octyloxy)-3-(trifluoromethyl)phenylamino)thiazol-4-yl)thiophene-2-carboxamide] yielded an EC50 of under 1 µM.
